# Experimental data taken from paper doi:10.1101/2021.01.27.428399v1 (biorxiv, 2021).
# Target: T1, GluR0 (Synechocystis sp. PCC 6803, UniProt P73797)
# T1 sequence (P73797 20-397): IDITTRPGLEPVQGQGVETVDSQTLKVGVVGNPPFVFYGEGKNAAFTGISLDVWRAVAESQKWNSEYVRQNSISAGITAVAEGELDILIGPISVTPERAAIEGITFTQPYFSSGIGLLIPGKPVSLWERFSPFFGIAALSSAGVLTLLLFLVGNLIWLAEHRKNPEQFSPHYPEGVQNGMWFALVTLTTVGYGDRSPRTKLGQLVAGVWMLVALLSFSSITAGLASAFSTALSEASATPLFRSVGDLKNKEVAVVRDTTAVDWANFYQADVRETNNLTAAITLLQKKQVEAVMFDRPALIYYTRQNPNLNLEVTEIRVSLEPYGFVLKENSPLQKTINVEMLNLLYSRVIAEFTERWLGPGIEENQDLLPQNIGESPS
# Assay: two-electrode voltage clamp, Xenopus oocytes
# Format: cell-based
smiles,measurement,value
N[C@@H](CCC(=O)O)C(=O)O [L-glutamate],EC50,29.9 ± 5 µM
